Experimental data reported in patent publication EP0533241A2, “Substituted alkyl derivatives of piperazinylcamphorsulfonyl oxytocin antagonists” (MERCK & CO. INC., priority 1991, dated 1993).

Biological target: T1, uterine OT receptors (Rattus norvegicus, UniProt P70536)
T1 sequence (P70536 1-388): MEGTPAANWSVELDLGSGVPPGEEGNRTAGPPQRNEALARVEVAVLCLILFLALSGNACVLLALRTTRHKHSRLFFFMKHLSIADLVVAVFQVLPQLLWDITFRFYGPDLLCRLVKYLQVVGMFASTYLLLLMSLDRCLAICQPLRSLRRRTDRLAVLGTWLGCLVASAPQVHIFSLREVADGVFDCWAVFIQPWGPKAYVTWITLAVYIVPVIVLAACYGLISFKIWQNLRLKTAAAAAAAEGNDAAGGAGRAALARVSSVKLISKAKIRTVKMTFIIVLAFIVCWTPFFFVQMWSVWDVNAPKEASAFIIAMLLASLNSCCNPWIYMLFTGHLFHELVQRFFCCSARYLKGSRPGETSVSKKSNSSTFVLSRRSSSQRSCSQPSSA
Test: [3H]Oxytocin radioligand binding competition assay, crude membrane preparation of uteri from DES-treated rats
Conditions: for IC50: 1 nM [3H]OT, 60 minutes, 22 °C, rat uterine membranes
Procedure: The high affinity binding of [^3H] Oxytocin (OT)([tyrosyl, 3,5-[^3H]OT; 30-60 Ci/mmol; New England Nuclear. Boston, MA) to uterine OT receptors was based on an assay*using a crude membrane preparation of uteri taken from diethylstilbestrol dipropionate (DES)-treated (0.3 mg/kg, ip; 18-24) rats. Competition studies were conducted at equilibrium (60 minutes; 22 ° C) using 1 NM[^3H]OT in the following assay buffer: 50 mM Tris-HCI, 5 mM MgCl2, and 0.1% BSA, pH 7.4. Nonspecific binding (10% of the total binding) was determined using 1µM unlabeled OT and the binding reaction was terminated by filtration through glass fiber filters using a cell harvester (model 7019, Skatron, Inc., Sterling, VA).

Row | Structure (SMILES) | IC50 [nM] | also measured
1 | CC(=O)NC(CC=C1CC2CCC1(CS(=O)(=O)N1CCN(c3ccccc3C)CC1)C2(C)C)C(=O)O (centres unmarked) [Example 29, 1-((7,7-DIMETHYL-2-(3-ACETAMIDO-3-CARBOXY) PROPYLIDINE-BICYCLO(2.2.1)HEPTAN-1-YL) METHANESULFONYL)-4-(2-METHYLPHENYL)PIPERAZINE] | – | inhibition at 1 µM (read-out: inhibition at 1,000 nM): 78%
2 | COC(=O)C1CC2CCC1(CS(=O)(=O)N1CCN(c3ccccc3C)CC1)C2(C)C (stereo not drawn) [Example 23, 1-((7,7-DIMETHYL-2-ENDO-METHOXYCARBONYL-BICYCLO (2.2.1)HEPTAN-1-YL)METHANESULFONYL)-4-(2-METHYLPHENYL)PIPERAZINE] | 120 | –
3 | Cc1ccccc1N1CCN(S(=O)(=O)CC23CCC(CC2NC(=O)C(CCS(C)(=O)=O)NC(=O)Cc2c[nH]cn2)C3(C)C)CC1 (centres unmarked) [Example 37] | 1.2 | –
4 | Cc1ccccc1N1CCN(S(=O)(=O)CC23CCC(CC2C(=O)O)C3(C)C)CC1 (centres unmarked) [Example 24] | 260 | –
5 | Cc1ccccc1N1CCN(S(=O)(=O)CC23CCC(CC2N(C)C(=O)C(CCS(C)(=O)=O)N(C)C)C3(C)C)CC1 (centres unmarked) [Example 42] | 9.2 | –
6 | CCOC(=O)CN1CCCC(C(=O)NC(C)CC2(O)CC3CCC2(CS(=O)(=O)N2CCN(c4ccccc4C)CC2)C3(C)C)C1 (centres unmarked) [Example 57] | – | inhibition at 100 nM (at 100 nM): 66% inhibition at 100 nM

Continued, in another order:

Row | IC50 [nM] | Structure (SMILES) | also measured
7 | 6.3 | Cc1ccccc1N1CCN(S(=O)(=O)CC23CCC(CC2N(C)C(=O)C(N)CCS(C)(=O)=O)C3(C)C)CC1 (centres unmarked) [Example 41] | –
8 | 5.4 | Cc1ccccc1N1CCN(S(=O)(=O)CC23CCC(CC2NC(=O)C(CCS(C)(=O)=O)N(C)C)C3(C)C)CC1 (centres unmarked) [Example 38] | –
